Read-outs that look alike come from different tables or passages of the source. Where a SMILES comes first, the peptide text is derived from it. Bridges are numbered along the chain shown (N, C = ends). [ ]: non-standard residue; d: D form. hArg = N=C(N)NCCCC[C@H](N)C(=O)O; Mpa = O=C(O)CCS
Tested on: ADP induced platelet aggregation
Format: cell-based
Conditions: human PRP
Protocol: The bioactivity of peptide of formula (1) is checked using platelet aggregation inhibition assay using 4× Laser Aggregometer (EMA). Freshly venous Blood from consented human donors are drawn and collected in citrated buffer. The platelet rich plasma (PRP) and platelet poor plasma are separated by centrifugation. Platelet count in PRP is adjusted to 2-3×10^8 platelets/ml. After adjusting the baseline aggregation with PPP, the PRP was treated with […] ADP and checked the percent total aggregation. The PRP is then first incubated with varying concentrations of reference standard and synthesized peptide of formula (1). ADP is then added to check the inhibition of aggregation. The reproducibility of bioactivity of synthesized peptide of formula 1 is checked several times and compared with reference standards.

For `N=C(N)NCCCC[C@@H]1NC(=O)CCSSC[C@@H](C(N)=O)NC(=O)[C@@H]2CCCN2C(=O)[C@H](Cc2c[nH]c3ccccc23)NC(=O)[C@H](CC(=O)O)NC(=O)CNC1=O` [SP of formula 1] ([Mpa][hArg]GDWPC-NH2; disulfide 1-7), the “% Inhibition of ADP induced aggregation” value (Donor 1, 140 nM) was 44.6%, the “% Inhibition of ADP induced aggregation” value (Donor 1, 280 nM) was 61.40% and the “% Inhibition of ADP induced aggregation” value (Donor 2, 70 nM) was 46.66%. The “% Inhibition of ADP induced aggregation” value (Donor 2, 140 nM) was 51.16%, the “% Inhibition of ADP induced aggregation” value (Donor 2, 280 nM) was 67.74% and the “% Inhibition of ADP induced aggregation” value (Donor 3, 70 nM) was 57.42%. For the same molecule, the “% Inhibition of ADP induced aggregation” value (Donor 3, 140 nM) was 60.28%, the “% Inhibition of ADP induced aggregation” value (Donor 4, 140 nM) was 20.52% and the “% Inhibition of ADP induced aggregation” value (Donor 4, 280 nM) was 42.73%. The “% Inhibition of ADP induced aggregation” value (Donor 5, 70 nM) was 52.63%, the “% Inhibition of ADP induced aggregation” value (Donor 5, 140 nM) was 87.21% and the “% Inhibition of ADP induced aggregation” value (Donor 6, 140 nM) was 82.92%. For the same molecule, the IC50 (12 experiments, read-out: IC50 dose, inhibition of ADP induced platelet aggregation) was less than 140 nM and the “inhibition of ADP induced platelet aggregation” value (seen in most of the samples) was “more than 50%”.
